Patent US4731370A, “Pyridyl ester containing 1,4-dihydropyridine derivatives and salts thereof and pharmaceutical composition containing the same” (Toyama Chemical Co., Ltd., priority 1984, dated 1988)

Assays:
[1] = Acute toxicity, intravenous, mice; conditions: mouse, in vivo, mice (ICR, male, 4 weeks old, 5 per group)
[2] = system: Thromboxane-Synthesizing Enzyme; assay: Thromboxane-synthesizing enzyme-inhibitory activity (MDA production in platelet-rich plasma after oral dosing); assay type: in vivo, rat (Wistar strain); conditions: rat, 3 mg/kg, blood after one hour
Protocol: (§1) The compounds of this invention to be tested were used in the form of a hydrochloride.
To a rat (Wistar strain, male, 300-350 g, 4 heads per group) which had been starved overnight was orally administered a test compound solution, and blood was collected from the abdominal aorta using citric acid after one hour. Two milliliters of a 1×10^9 /ml platelet-rich plasma (PRP) was preincubated at 37° C. for 2 minutes. Subsequently, 0.1 ml of 10 mM sodium archidonate was added, and the resulting mixture was subjected to reaction for 6 minutes, after which indomethacin was added thereto to terminate the reaction. The reaction mixture was subjected to deproteinization treatment and reacted with thiobarbituric acid (TBA) reagent, after which the reaction mixture was subjected to extraction with 3 ml of n-butanol. The resulting extract was subjected to colorimetry (λ=532 nm) to determine the amount of malondialdehyde (MDA) produced. As to the platelet-poor plasma (PPP) obtained from the same rat as above, the same procedure as above was repeated to determine the amount of MDA produced, and the difference between the two is indicated as MDA value. Comparing with the MDA values of the control group, the MDA production-inhibition (%) was determined.
The test compounds 1-9 were adjusted to the desired concentrations with water and the test compounds 11-33 and nicardipine were adjusted to a concentration of 5 mg/ml with an aqueous solution containing 10% of each of dimethyl sulfoxide and Cremophor and then diluted with water to the desired concentrations.

[3] = system: vertebral artery blood flow of a dog; assay: Vertebral artery blood flow increasing activity; assay type: in vivo, dog (mongrel); conditions: i.v., amount with same activity as 1 mg/kg (i.v.) papaverine hydrochloride, ratio to papaverine hydrochloride
Protocol: as §1
The vertebral artery blood flow of a dog (mongrel, 12-22 kg, 2-3 heads per group) anesthetized with pentobarbital sodium (30 mg/kg, i.v.) was measured by means of an electromagnetic flow meter (MFV-2100 manufactured by Nihon Kohden Kogyo).
The test compounds 1, 3 and 10 were adjusted to a concentration of 1 mg/ml with distilled water, and then diluted with a saline solution to the desired concentrations, after which the thus diluted solutions were intravenously administered, and the test compounds 12, 15, 18, 19, 20, 24, 29, 30, 32 and 33 were formed into solutions in the same manner as in Item 1 above and then intravenously administered.

[4] = system: coronary vessel (isolated guinea pig heart); assay: Coronary vasodilating activity (isolated perfused guinea pig heart, coronary effluent); set-up: species or system guinea pig (Hartley strain); conditions: Langendorff perfusion, 0.1 ml into aorta, hydrochloride
Protocol: as §1
The heart of a guinea pig (Hartley strain, male, 500-700 g, 3 heads per group) was isolated and set in the Landendorff perfusing apparatus. About 0.5% defibrinated blood was fed to the apparatus, and the Krebs bicarbonate solution, into which a mixed gas consisting of 95% of O2 and 5% of CO2 had been bubbled was perfused over the heart, after which a 1 mg/ml solution of the test compound in an aqueous solution containing 10% by volume of dimethylsulfoxide and 10% of polyoxyethylfatty acid glyceride [Cremophor EL manufactured by Sigma] was prepared, diluted with a saline solution to the desired concentration, and then administered into the heart in an amount of 0.1 ml through the rubber tube attached to the cannula inserted retrogressively into the aorta. The vasodilating activity was determined by measuring the amount of the solution effluent from the coronary vessel after passing through the aorta by means of an electric drop counter (universal drop counter manufactured by Natsume Seisakusho) and indicated as ED50 value which is the amount necessary for the amount of the effluent solution to increase 50% as compared with those before addition of the test compound.

[5] = system: mouse pulmonary infraction model; assay: Antithrombosis activity, mouse pulmonary infraction model, prevention of death and paralysis (0.10 ml epinephrine/collagen); assay type: in vivo, mouse (ICR strain); conditions: 1 h; mouse, oral, 10 mg/kg, challenge after one hour; control 25.7%; read-out: Preventive percentage of death + paralysis for 10 minutes or more
Protocol: as §1
According to the G. DiMinno and M. J. Silver method [J. Pharmacol. Exp. Therap., 225 (1) 57-60 (1983)], a solution of the compound to be tested was orally administered to a mouse (ICR strain, male, 4 weeks old), and 0.15 ml of a mixed solution of epinephrine (100 μM) and collagen (150 μg/ml) was intravenously administered to the mouse after one hour, after which the paralytic time was measured. Comparing the paralytic time of the control group, the paralytic time-shortening percentage due to the compound to be tested was determined. The results obtained are shown in Table 4, in which the case where the paralytic time was 15 minutes was calculated as death.
Moreover, the same experiment was repeated, except that 0.10 ml of a mixed solution of epinephrine (100 μM) and collagen (150 μg/ml) was intravenously administered to the mouse and the effect of preventing the appearance of death and a case where the paralytic time was 10 minutes or more was checked and the results thereof are shown in Table 5.
(§2) The test compounds shown in Table 4 were adjusted to the desired concentrations with water, and the test compounds shown in Table 5 were adjusted to a concentration of 5 mg/ml with an aqueous solution containing 10% by volume of each of dimethyl sulfoxide and Cremophor, and then diluted with water to the desired concentrations.

[6] = system: mouse pulmonary infraction model; assay: Antithrombosis activity, mouse pulmonary infraction model, paralytic time-shortening (0.15 ml epinephrine/collagen); assay type: in vivo, mouse (ICR strain); conditions: 1 h, oral, 10 mg/kg, challenge after one hour, 10 mice, read-out: Paralytic time-shortening percentage
Protocol: as §1
Comparing the paralytic time of the control group, the paralytic time-shortening percentage due to the compound to be tested was determined.
as §2

SMILES | LD50 [1] | MDA production-inhibition [2] | Effect ratio [3] | ED50 (amount necessary for the amount of the effluent solution to increase 50%) [4] | responders at 10 mg/kg [5] | inhibition in vivo at 10 mg/kg [6]
CC1=C(C(=O)OCCN(C)C/C=C/c2ccc(Cn3ccnc3)cc2)C(c2cccc([N+](=O)[O-])c2)C(C(=O)OC(C)C)=C(C)N1 (stereo not shown) [compound 9] | ≥ 30 mg/kg | 47.2% |  |  |  | 
CCOC(=O)C1=C(C)NC(C)=C(C(=O)OCCOCCCc2ccc(Cn3ccnc3)cc2)C1c1cccc([N+](=O)[O-])c1 (stereo not shown) [compound 11] |  | 37.8% |  |  |  | 
COC(=O)C1=C(C)NC(C)=C(C(=O)OCC(C)(C)COC/C(C)=C/c2ccc(Cc3cccnc3)cc2)C1c1cccc([N+](=O)[O-])c1 (stereo not shown) [compound 32] |  |  | 417 |  |  | 
CCOC(=O)C1=C(C)NC(C)=C(C(=O)OCCOCCCc2ccc(Cc3cccnc3)cc2)C1c1cccc([N+](=O)[O-])c1 (stereo not shown) [compound 18] |  | 40.9% | 233 | 0.026 μg/i.c. |  | 
CCOC(=O)C1=C(C)NC(C)=C(C(=O)OCCOC/C=C/c2ccc(Cn3ccnc3)cc2)C1c1cccc([N+](=O)[O-])c1 (stereo not shown) [compound 13] |  | 47.2% |  | 0.036 μg/i.c. |  | 
CCOC(=O)C1=C(C)NC(C)=C(C(=O)OCCSC/C=C/c2ccc(Cc3cccnc3)cc2)C1c1cccc([N+](=O)[O-])c1 (stereo not shown) [compound 28] |  | 31.2% |  |  |  | 
CC1=C(C(=O)OCCOC/C=C/c2ccc(Cc3cccnc3)cc2)C(c2cccc([N+](=O)[O-])c2)C(C(=O)OC(C)C)=C(C)N1 (stereo not shown) [compound 24] |  |  | 286 |  | 90% | 
CCOC(=O)C1=C(C)NC(C)=C(C(=O)OCCOC/C(C)=C/c2ccc(Cc3cccnc3)s2)C1c1cccc([N+](=O)[O-])c1 (stereo not shown) [compound 21] | ≥ 75 mg/kg |  |  |  | 80% | 
CCOC(=O)C1=C(C)NC(C)=C(C(=O)OCCOCc2ccc(Cc3cccnc3)cc2)C1c1cccc([N+](=O)[O-])c1 (stereo not shown) [compound 15] |  |  | 238 | 0.0092 μg/i.c. |  | 
CC1=C(C(=O)OCCOC/C=C/c2ccc(Cc3cccnc3)cc2)C(c2cccc([N+](=O)[O-])c2)C(C(=O)OCCN(C)Cc2ccccc2)=C(C)N1 (stereo not shown) [compound 23] |  |  |  | 0.019 μg/i.c. |  | 
COCCOC(=O)C1=C(C)NC(C)=C(C(=O)OCCN(C)C/C(C)=C/c2ccc(Cc3cccnc3)cc2)C1c1cccc([N+](=O)[O-])c1 (stereo not shown) [compound 3] |  | 65.8% | 385 |  |  | 
CCOC(=O)C1=C(C)NC(C)=C(C(=O)OCCN(C)C/C(C)=C/c2ccc(Cc3cccnc3)cc2)C1c1cccc([N+](=O)[O-])c1 (stereo not shown) [compound 4] |  | 53.6% |  |  |  | 38.6%
CCOC(=O)C1=C(C)NC(C)=C(C(=O)OCC(C)COC/C(C)=C/c2ccc(Cc3cccnc3)cc2)C1c1cccc([N+](=O)[O-])c1 (stereo not shown) [compound 31] |  | 50.5% |  |  |  | 
CCOC(=O)C1=C(C)NC(C)=C(C(=O)OCCOCCCc2ccc(Oc3cccnc3)cc2)C1c1cccc([N+](=O)[O-])c1 (stereo not shown) [compound 20] |  |  | 535 | 0.024 μg/i.c. | 70% | 
CCOC(=O)C1=C(C)NC(C)=C(C(=O)OCCOC/C=C/c2ccc(Cc3cccnc3)cc2)C1c1cccc([N+](=O)[O-])c1 (stereo not shown) [compound 16] | ≥ 75 mg/kg | 31.6% |  | 0.0105 μg/i.c. |  | 
CCOC(=O)C1=C(C)NC(C)=C(C(=O)OCCOCCc2ccc(Cc3cccnc3)cc2)C1c1cccc([N+](=O)[O-])c1 (stereo not shown) [compound 27] |  | 35.7% |  |  | 77.8% | 
CCOC(=O)C1=C(C)NC(C)=C(C(=O)OCC(C)(C)COC/C(C)=C/c2ccc(Cc3cccnc3)cc2)C1c1cccc([N+](=O)[O-])c1 (stereo not shown) [compound 33] |  | 41.5% | 333 |  |  | 
CC1=C(C(=O)OCCN(C)C/C(C)=C/c2ccc(Cc3cccnc3)cc2)C(c2cccc(Cl)c2Cl)C(C(=O)OC(C)C)=C(C)N1 (stereo not shown) [compound 5] |  | 57.9% |  |  |  | 93.9%
CCOC(=O)C1=C(C)NC(C)=C(C(=O)OCCOC/C(C)=C/c2ccc(Oc3cccnc3)cc2)C1c1cccc([N+](=O)[O-])c1 (stereo not shown) [compound 19] | ≥ 75 mg/kg |  | 550 | 0.017 μg/i.c. | 77.8% | 
COC(=O)C1=C(C)NC(C)=C(C(=O)OCCOC/C=C/c2ccc(Cc3cccnc3)cc2)C1c1ccccc1C(F)(F)F (stereo not shown) [compound 26] |  |  |  |  | 90% | 
CC1=C(C(=O)OCCN(C)C/C(C)=C/c2ccc(Cc3cccnc3)cc2)C(c2cccc([N+](=O)[O-])c2)C(C(=O)OC(C)C)=C(C)N1 (stereo not shown) [compound 1] |  | 59.4% | 238 |  |  | 52.3%
CC1=C(C(=O)OCCN(C)C/C(C)=C/c2ccc(Cc3cccnc3)cc2)C(c2ccccc2C(F)(F)F)C(C(=O)OC(C)C)=C(C)N1 (stereo not shown) [compound 6] |  | 60.6% |  |  |  | 87.9%
COC(=O)C1=C(C)NC(C)=C(C(=O)OCCOC/C=C/c2ccc(Cc3cccnc3)cc2)C1c1cccc([N+](=O)[O-])c1 (stereo not shown) [compound 22] |  |  |  | 0.016 μg/i.c. |  | 
CC1=C(C(=O)OCCOC/C(C)=C/c2ccc(Cc3cccnc3)cc2)C(c2cccc([N+](=O)[O-])c2)C(C(=O)OC(C)C)=C(C)N1 (stereo not shown) [compound 29] |  | 56.8% | 426 | 0.019 μg/i.c. | 90% | 
CCOC(=O)C1=C(C)NC(C)=C(C(=O)OCCCCOC/C(C)=C/c2ccc(Cc3cccnc3)cc2)C1c1cccc([N+](=O)[O-])c1 (stereo not shown) [compound 30] | ≥ 50 mg/kg |  | 397 |  |  | 
CCOC(=O)C1=C(C)NC(C)=C(C(=O)OCCOCc2ccc(Cn3ccnc3)cc2)C1c1cccc([N+](=O)[O-])c1 (stereo not shown) [compound 14] |  |  |  | 0.023 μg/i.c. |  | 
CCOC(=O)C1=C(C)NC(C)=C(C(=O)OCCOC/C(C)=C/c2ccc(Cc3cccnc3)cc2)C1c1cccc([N+](=O)[O-])c1 (stereo not shown) [compound 12] | ≥ 75 mg/kg | 48.1% | 345 | 0.026 μg/i.c. | 77.8% | 
COC(=O)C1=C(C)NC(C)=C(C(=O)OCCOC/C(C)=C/c2ccc(Cc3cccnc3)cc2)C1c1cccc([N+](=O)[O-])c1 (stereo not shown) [compound 17] | ≥ 75 mg/kg | 58.6% |  | 0.012 μg/i.c. | 100% | 
